Measurements reported in US20210290597A1, “METHOD OF TREATING A CONDITION ASSOCIATED WITH NEURODEGENERATION USING INHIBITORS OF OAT3” (Neuropore Therapies, Inc., priority 2018, published 2021).

Assays:
[1] = target: T1, human transporter OCT2 (Homo sapiens, UniProt O15244); test: In vitro ion transport assay 1, OCT2; format: cell-based; settings: probe substrate 10 μM [14C]-metformin
T1 construct: expressed in transfected cells; host or cells: MDCK-II
T1 sequence (O15244 1-555): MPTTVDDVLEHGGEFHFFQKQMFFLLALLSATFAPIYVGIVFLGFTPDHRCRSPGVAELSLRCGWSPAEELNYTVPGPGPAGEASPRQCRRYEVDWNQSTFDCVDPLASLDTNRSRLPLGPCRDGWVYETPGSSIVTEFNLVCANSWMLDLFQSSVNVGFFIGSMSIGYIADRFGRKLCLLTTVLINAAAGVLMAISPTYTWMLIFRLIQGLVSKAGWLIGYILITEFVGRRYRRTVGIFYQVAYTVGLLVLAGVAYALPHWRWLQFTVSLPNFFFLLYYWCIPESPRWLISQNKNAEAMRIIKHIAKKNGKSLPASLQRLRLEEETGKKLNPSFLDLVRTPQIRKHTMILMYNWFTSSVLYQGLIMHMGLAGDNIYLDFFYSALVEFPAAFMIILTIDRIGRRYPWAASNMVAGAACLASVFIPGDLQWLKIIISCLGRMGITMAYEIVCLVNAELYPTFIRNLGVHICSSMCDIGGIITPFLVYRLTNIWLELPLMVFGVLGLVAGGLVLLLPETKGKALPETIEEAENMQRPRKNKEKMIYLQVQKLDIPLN
Experimental: (§1) Compound 1 was studied in the concentration range of 0.1-100 μM for its potency against transport mediated by various transporter proteins. [table]

[2] = target: T2, P-gp (MDR1) (Homo sapiens, UniProt P08183); test: In vitro ion transport assay 1, P-gp; format: cell-based; settings: probe substrate 100 nM [3H]-quinidine
T2 construct: expressed in transfected cells
T2 sequence (P08183 whole entry, species assumed): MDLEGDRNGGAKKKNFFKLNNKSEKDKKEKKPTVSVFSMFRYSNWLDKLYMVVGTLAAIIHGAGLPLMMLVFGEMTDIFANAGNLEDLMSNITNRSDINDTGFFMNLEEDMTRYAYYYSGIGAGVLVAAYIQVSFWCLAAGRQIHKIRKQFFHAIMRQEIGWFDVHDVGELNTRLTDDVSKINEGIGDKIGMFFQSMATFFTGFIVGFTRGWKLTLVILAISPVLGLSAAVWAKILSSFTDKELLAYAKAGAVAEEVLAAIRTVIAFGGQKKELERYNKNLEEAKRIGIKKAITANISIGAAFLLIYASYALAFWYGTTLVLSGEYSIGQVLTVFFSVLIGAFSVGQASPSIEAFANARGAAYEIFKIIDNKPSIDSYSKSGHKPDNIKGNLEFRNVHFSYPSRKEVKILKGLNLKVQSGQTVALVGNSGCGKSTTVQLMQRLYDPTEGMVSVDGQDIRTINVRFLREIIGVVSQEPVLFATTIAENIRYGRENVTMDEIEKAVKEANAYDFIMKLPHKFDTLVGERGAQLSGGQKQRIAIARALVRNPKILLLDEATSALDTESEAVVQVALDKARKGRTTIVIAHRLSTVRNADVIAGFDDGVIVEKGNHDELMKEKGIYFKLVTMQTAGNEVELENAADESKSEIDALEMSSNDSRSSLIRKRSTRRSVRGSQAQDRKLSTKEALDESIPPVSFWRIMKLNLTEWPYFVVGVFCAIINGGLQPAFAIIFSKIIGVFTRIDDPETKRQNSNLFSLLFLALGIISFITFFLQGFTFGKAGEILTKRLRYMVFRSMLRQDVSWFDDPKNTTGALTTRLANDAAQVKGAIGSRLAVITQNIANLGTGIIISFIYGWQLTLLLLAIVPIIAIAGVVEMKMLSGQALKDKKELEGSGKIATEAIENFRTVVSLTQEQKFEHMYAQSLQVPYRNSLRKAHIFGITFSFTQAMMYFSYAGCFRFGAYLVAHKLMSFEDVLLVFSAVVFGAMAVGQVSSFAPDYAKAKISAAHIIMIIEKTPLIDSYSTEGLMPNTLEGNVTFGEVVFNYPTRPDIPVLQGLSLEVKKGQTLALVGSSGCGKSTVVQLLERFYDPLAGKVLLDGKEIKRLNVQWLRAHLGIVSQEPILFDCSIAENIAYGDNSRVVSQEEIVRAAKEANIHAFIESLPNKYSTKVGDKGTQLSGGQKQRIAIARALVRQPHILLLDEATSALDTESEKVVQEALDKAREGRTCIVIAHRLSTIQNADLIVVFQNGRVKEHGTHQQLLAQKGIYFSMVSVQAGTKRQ
Experimental: as §1

[3] = system: amyloid beta; test: Amyloid beta staining (6E10), L41 APP transgenic mice; format: in vivo; settings: 5 mg/kg daily i.p.
Experimental: As described earlier, Line 41 transgenic mice express high levels of the mutant hAPP751 and develop mature plaques in the cortex, hippocampus, thalamus and olfactory region of mouse brain. The effects of Compound 1 on Amyloid beta plaque formation were assessed in both L41 APP transgenic and non-transgenic mice in a 1 month administration study. After 30 days, the mice were sacrificed, and immunofluorescence (IF) detection of amyloid beta were assessed in the harvested brain tissues.
The harvested brain tissues were drop fixed using 4% PFA and sectioned on a vibratome, and representative sections containing the neuropil of cortex, hippocampus and striatum were assessed for amyloid beta with standard IHC staining.
On approximately day 30, all subjects were euthanized within 2 hours of the last treatment and brain and other samples were collected. Brains were removed and divided sagitally. […]
Prepared slides were imaged at 40× using a high-resolution Hamamatsu Nanozoomer™ scanner located in the Microscopy Core in the UCSD Department of Neurosciences. Digital images were then transferred to Neuropore and analyzed using the Halo® imaging software package (Indica Labs, Corrales, N. Mex.). […] Images were evaluated for specimen and imaging problems and any issues were noted prior to unblinding of samples and statistical analyses.

IC50 [1]: > 100 µM | IC50 [2]: 37.1 µM
SMILES: O=S(=O)(c1ccc(-n2cn[nH]c2=S)cc1)c1ccc(Cl)c(C(F)(F)F)c1 [Compound 1, 4-(4-((4-chloro-3-(trifluoromethyl)phenyl)sulfonyl)phenyl)-2,4-dihydro-3H-1,2,4-triazole-3-thione]
amyloid beta level vs vehicle-treated Line 41 mice [3]: reduces the amyloid beta level in a statistically significant manner
